What was measured:
N1^+/− ECs = test: Validation trials of screen candidates by targeted RNA-seq with the trained KNN algorithm; assay type: cell-based, human; conditions: duplicate or triplicate; one or more replicates classified as WT
Experimental: Starting on day 15 of differentiation, WT ECs were exposed to 10 μM DMSO (dimethyl sulfoxide) (n=80) while isogenic N1^+/− ECs were exposed to either 10 μM DMSO (n=80) or one of the small molecules from the LOPAC (1280 molecules) (Sigma LO1280) or Sheng Ding (315 molecules) chemical libraries. DMSO or small molecules were renewed with EC media (ScienCell #1001) changes on alternating days until the cells were ultimately collected for analysis on day 21. ECs were imaged using the IN Cell Analyzer on day 21 to evaluate morphology and cell death; wells with extensive cell death were eliminated from final analyses. For validation experiments, promising small molecules identified from the initial screen were applied to N1^+/− ECs in duplicate or triplicate along with controls of DMSO-exposed WT and N1^+/− ECs (n=4 each) using the same process as the initial screen described above.
ECs were lysed and RNA was isolated using the Qiagen RNeasy 96-well purification kit. RNA was diluted so that it was between the 10 pg-1 ng range accepted by the Cellular Research Precise targeted RNA-seq (RNA sequencing) system. Targeted RNA-seq libraries were prepared as per the Cellular Research Precise protocol (Rev 03092015), which includes both molecule and sample barcoding. The selected 119 target genes (see Table 1) included 3 low-expressing housekeeping genes for normalization (CHMP2A, C1orf43, REEP5) and either predicted central regulatory nodes or peripheral genes positioned within varied regions of the N1 network to permit identification of small molecules that affected central nodes as well as those that may have a synergistic effect in combination due to regulating different aspects of the network. Briefly, RNA was added to the Precise Encoding Plate containing indexed dT primer, dNTPs, and Spike-in mRNA controls and incubated at 65° C. for 3 minutes followed by cooling on ice. A master-mix of RT enzyme, RNase inhibitor, and buffer was then added to the samples, and they were incubated at 42° C. for 30 minutes followed by 80° C. for 5 minutes. Each plate of samples was combined into a single 2 ml tube and purified with AMPureXP beads. N1 PCR master-mix was added and samples were incubated for 94° C. for 2 minutes, followed by 15 cycles of 94° C. for 30 seconds, 55° C. for 3 minutes, and 68° C. for 1 minute, followed by 68° C. for 7 minutes. Samples were purified with AMPureXP beads and N2 PCR master-mix was added. Samples were incubated with the same thermal cycler program as above for 12 cycles. These final libraries were then purified with AMPureXP beads and analyzed for quality and concentration by Agilent Bioanalyzer and Illumina Library Quantification Kit (KAPA Biosystems), respectively. Libraries were normalized to equivalent concentration and pooled for paired-end 100 bp sequencing on an Illumina HiSeq 2500 instrument.
Sequencing data was analyzed using Cellular Research Precise Analysis Pipeline on the SevenBridges platform, which included analyzing sequencing quality with FASTQC, trimming adapters and filtering reads, demultiplexing based on sample barcodes, aligning reads with Bowtie 2, and determining the number of unique molecular indices per gene. Network inference was based on mutual information of gene expression from all DMSO- and small molecule-exposed samples as described in Margolin et al., BMC Bioinformatics. 2006; 7 Suppl 1:S7. Network diagram was generated using NetworkX (Hagberg et al., Exploring Network Structure, Dynamics, and Function using NetworkX. SciPy. 2008) based on network connections inferred from the small molecule screen data as described above with colors based on whole transcriptome RNA-seq gene expression of isogenic N1^+/− compared to WT ECs.
Promising small molecules were identified using either K-nearest neighbor (KNN) or hierarchical clustering algorithms. […]

N1^+/−/mTR^G2 mice = test: In vivo small molecule treatment, staining of AV calcification with Alizarin Red; conditions: for reduction of the extent of calcification / reduction of the number of mice that developed calcification: compared to DMSO-treated mice, Alizarin red; for reduction of the extent of calcification: TG003 n=2, p=0.09, XCT790 single calcified mouse, not statistically significant; for reduction of the number of mice that developed calcification: TG003 p=0.09, XCT790 not statistically significant; for number of mice with calcified AVs by Alizarin red staining: four weeks of treatment from fourth postnatal week, DMSO 14 of 86; for AV calcification, overall conclusion: summary statement
Experimental: Protocols were reviewed/approved by UCSF Institutional Animal Care and Use Committee, San Francisco, CA. N1^+/− and mTR^het C57Bl6 mice (purchased from Jackson Labs: #002797 and #004132, respectively) were used to generate double mutant animals. Breedings were performed as previously described (Theodoris et al., The Journal of Clinical Investigation. 2017; 127:1683) to generate N1^+/−/[…] mice. Mice were treated with XCT790 (5 mg/kg/day), TG003 (0.3 mg/kg/day or 2 mg/kg/day, results pooled for analysis), Fmoc-leu (0.6 mg/kg/day), GSK837149A (4.5 mg/kg/day), biperiden (10 mg/kg/day), CB1954 (15 mg/kg/day), putrescine (0.26 mg/kg/day), naloxone (25 mg/kg/day), all by intraperitoneal injection, and RO4929097 (60 mg/kg/day) by oral gavage, or equivalent volume of solvent (DMSO or saline) for four weeks starting at the fourth postnatal week.
Hearts were fixed by perfusion fixation under anesthesia using isofluorane by ventricular KCl injection followed by PBS wash and fixation with 4% paraformaldehyde. Hearts were then incubated in 10% formalin overnight. The cardiac apex was cut parallel to the aortic root, and the heart tissue was then paraffin processed using standard protocols and embedded with the cut surface down. The resulting paraffin block was trimmed and angled to obtain a full three-leaflet view of the aortic root. The root was serially sectioned at […] intervals from the base of the aortic sinus and mounted on slides. The slides were then deparaffinized, and calcification was stained with 2% Alizarin Red (pH 4.1-4.3) as previously described (Theodoris et al., The Journal of Clinical Investigation. 2017; 127:1683).

SMILES | KNN classification of treated N1^+/− ECs in validation trials (N1^+/− ECs) | reduction of the extent of calcification (N1^+/−/mTR^G2 mice) | reduction of the number of mice that developed calcification (N1^+/−/mTR^G2 mice) | number of mice with calcified AVs by Alizarin red staining (N1^+/−/mTR^G2 mice) | AV calcification, overall conclusion (N1^+/−/mTR^G2 mice)
CCN1/C(=C/C(C)=O)Sc2ccc(OC)cc21 [TG003, (Z)-1-(3-ethyl-5-methoxy-2,3-dihydrobenzothiazol-2-ylidene)propan-2-one] | classified as WT | 80% | 68% | 2 of 38 | showed a trend of reducing AV calcification
COc1cc(/C=C(\C#N)C(=O)Nc2nnc(C(F)(F)F)s2)ccc1OCc1ccc(C(F)(F)F)cc1C(F)(F)F [XCT790, 2E-3-(4-{[2,4-bis(trifluoromethyl)benzyl]oxy}-3-methoxyphenyl)-2-cyano-N-[5-(trifluoromethyl)-1,3,4-thiadiazol-2-yl]acrylamide] | classified as WT | 99% | 64% | 1 of 17 | showed a trend of reducing AV calcification

— patent publication US12599608B2, “Methods for treating cardiac valve disease” (The Regents of the University of California, priority 2018, dated 2026)
